The values below come from patent US6448378B2, “Compound delivery using rapidly dissolving collagen film” (priority 1998, dated 2002).

Data set [1] is described as follows: HPLC analysis of mitomycin solution stability. In kind it is physicochemical. Particulars: storage at ambient temperature and 4° C. in the dark. The protocol: In contrast to the stability of mitomycin in the collagen film, HPLC analysis of the mitomycin solution determined that stability was maintained for only 4 days following storage at ambient temperature and 4° C. in the dark. Dissolution and storage in 0.9% saline or phosphate buffer (pH 7.4) is not recommended due to degradation and precipitation.

For data set [2], the system named is human subconjunctival fibroblasts derived from Tenon's membrane. Particulars: freshly prepared 0.4 mg/ml solution, dissolved in USP sterile water.
Procedure: 6 mm diameter discs were cut from the film and applied to human subconjunctival fibroblasts derived from Tenon's membrane layered in 96 well plates (CSM supplemented with 10% fetal bovine serum). After 72 hours, mitomycin-induced inhibition of cell division was assessed by measuring the reduction in fluorescence intensity (RFU) using a fluorogenic CalceinAM assay (see, for example, Decherchi et al., J. Neurosci. Meth. 71: 205 (1997); Sugita, Pflitgers Arch. 429: 555 (1995); Padanilam et al., Ann. NY Acad. Sci. 720: 111 (1994); Lichtenfels et al., J. Immunol. Meth. 172: 227 (1994); and Wang et al., Human Immunol. 37: 264 (1993)).

Each structure is given as a SMILES string.

For `CO[C@@]12[C@H](COC(N)=O)C3=C(C(=O)C(C)=C(N)C3=O)N1C[C@@H]1N[C@@H]12` [mitomycin solution, mitomycin], in data set [1], the “time for which stability of the solution was maintained (HPLC)” value came out at 4 days. Also, in data set [2], the “% cell death inhibition relative to the values of the mitomycin-collagen films (91%, 90%, 92%)” value is “comparable”.
